Assay results as given in patent US4869904A, “Sustained release drug preparation” (Nisshin Flour Milling Co., Ltd., priority 1986, dated 1989).
Counter-ions that a name gives are not always drawn.

Experiment: Dissolution and release of powder samples in water (FIG. 2)
Format: physicochemical
Settings: alone
Protocol: The formation of an inclusion complex of a medical compound with an alkylated cyclodextrin derivative in accordance with the process described above was confirmed by various methods such as powder X-ray diffraction, dissolution behavior, scanning electron microscope analysis, differential thermal analysis (DTA) and infrared absorption (IR). Inclusion complexes were prepared using diltiazem hydrochloride as an exemplary medical compound, and the behavior of dissolution and release of diltiazem from the inclusion complex in the powder form, as well as the behavior of dissolution and release of diltiazem from compressed tablets containing the inclusion complex were determined in order to confirm the complexing reaction and to evaluate the sustained release property, respectively. Further, the inclusion complex was administered orally to rats, and changes in the plasma concentration of the medical compound were then measured. While taking the determined dissolution and release behavior of the diltiazem into parallel consideration, the achievement of the sustained release property of the inclusion complex was confirmed. It was also proven that the dissolution and release rate of the medical compound, diltiazem, could be controlled at will, by using the ethylated cyclodextrins as the host compound for formation of inclusion complexes. […]

Compound: COc1ccc([C@@H]2Sc3ccccc3N(CCN(C)C)C(=O)[C@@H]2OC(C)=O)cc1 [diltiazem hydrochloride]
- time to dissolution in water to an extent of 100%: about 5 minutes
